{
  "source": "patent US20220372042A1",
  "about": "“CONDENSED HETEROCYCLES AS BCL-2 INHIBITORS” (Newave Pharmaceutical Inc., priority 2019, published 2022)",
  "origin": "cited, not measured here",
  "key": {"[1]": {"system": "RS4; 11 xenografts", "details": "single dose of 100 mg/kg"}, "[2]": {"system": "CLL", "details": "average; read-out: average EC50 apoptosis in CLL"}, "[3]": {"system": "DoHH2, Granta-519 xenografts", "details": "single agent or in combination with Bendamustine and other agents"}, "[4]": {"system": "CLL who have 17p deletion", "details": "CLL with 17p deletion"}, "[5]": {"system": "RS4; 11 cells"}, "[6]": {"system": "xenograft models of small-cell lung cancer and acute lymphoblastic leukemia", "details": "single agent"}, "[7]": {"system": "H345 xenograft", "details": "100 mg/kg/day, H345 xenograft model"}, "[8]": {"system": "circulating platelets", "details": "patients, clinical trial"}, "[9]": {"system": "SCLC H146 cell line", "details": "read-out: IC50 against SCLC H146 cell line"}, "[10]": {"molecular_target": "T1, Bcl-w (Homo sapiens, UniProt Q92843)", "T1 sequence (Q92843 1-193)": "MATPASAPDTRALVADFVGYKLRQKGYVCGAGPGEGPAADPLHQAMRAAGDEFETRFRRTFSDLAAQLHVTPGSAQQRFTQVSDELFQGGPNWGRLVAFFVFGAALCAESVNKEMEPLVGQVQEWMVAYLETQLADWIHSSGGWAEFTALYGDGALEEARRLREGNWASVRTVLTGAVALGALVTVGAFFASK"}, "[11]": {"details": "in vivo"}, "[12]": {"system": "established tumors", "details": "mouse, in vivo"}},
  "data": [
    {"molecule": "CC1(C)CCC(CN2CCN(c3ccc(C(=O)NS(=O)(=O)c4ccc(NCC5CCOCC5)c([N+](=O)[O-])c4)c(Oc4cnc5[nH]ccc5c4)c3)CC2)=C(c2ccc(Cl)cc2)C1", "note": "[ABT-199]", "values": [
      {"measurement": "maximal tumor growth inhibition", "setting": "[1]", "value": 95, "unit": "%"},
      {"measurement": "tumor growth delay", "setting": "[1]", "value": 152, "unit": "%"},
      {"measurement": "EC50", "setting": "[2]", "value": 3, "unit": "nM"},
      {"measurement": "xenograft growth", "setting": "[3]", "value": "inhibits xenograft growth"},
      {"measurement": "clinical efficacy", "setting": "[4]", "value": "highly efficacious"},
      {"measurement": "EC50", "setting": "[5]", "value": 8, "unit": "nM"}
    ]},
    {"molecule": "CC1(C)CCC(c2ccc(Cl)cc2)=C(CN2CCN(c3ccc(C(=O)NS(=O)(=O)c4ccc(N[C@H](CCN5CCOCC5)CSc5ccccc5)c(S(=O)(=O)C(F)(F)F)c4)cc3)CC2)C1", "note": "[ABT-263]", "values": [
      {"measurement": "tumor response after oral administration alone", "setting": "[6]", "value": "complete tumor regressions"},
      {"measurement": "TGI", "setting": "[7]", "value": 80, "unit": "%"},
      {"measurement": "treated tumors indicating at least a 50% reduction in tumor volume", "setting": "[7]", "value": 20, "unit": "%"},
      {"measurement": "number of circulating platelets", "setting": "[8]", "value": "rapid, concentration-dependent decrease"},
      {"measurement": "IC50", "setting": "[9]", "value": 110, "unit": "nM"},
      {"measurement": "Ki", "setting": "[10]", "value": "≤ 1", "unit": "nM"}
    ]},
    {"molecule": "CN(C)CC[C@H](CSc1ccccc1)Nc1ccc(S(=O)(=O)NC(=O)c2ccc(N3CCN(Cc4ccccc4-c4ccc(Cl)cc4)CC3)cc2)cc1[N+](=O)[O-]", "note": "[ABT-737]", "values": [
      {"measurement": "oral bioavailability", "setting": "[11]", "value": "not orally bioavailable"},
      {"measurement": "aqueous solubility", "value": "low aqueous solubility"},
      {"measurement": "efficacy in animal models", "setting": "[12]", "value": "improves survival, causes regression of established tumors, and produces cures in a high percentage of the mice"}
    ]}
  ]
}
